Patent publication US9096591B2, “Tetracyclic compounds” (Medivation Technologies, Inc., priority 2007, dated 2015)
“And” between values parts separate entries of the source, which are not always exact repeats. Identical values can stand only once.

Experiments:
[1] = tested on: synaptosomes of cortex of rat brain; assay: Glutamate-induced 45Ca2+ uptake into synaptosomes; format: biochemical, Wistar rats; settings: for % Ca of control (control-100%), glutamate-induced 45Ca2+ uptake into synaptosomes: rat cortex synaptosomes
Outline: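 Cortical synaptosomes (P2 fraction) from 9-10-day-old Wistar rats, ~1.5-2 mg/ml protein in HEPES-buffered saline with glucose, pH 7.4, stimulated 5 min with 200 μM glutamate at 37° C. 45Ca2+ uptake measured by filtration and scintillation counting; specific uptake with compound expressed as percentage of glutamate-induced uptake, each corrected for unstimulated uptake.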

rat brain mitochondria = assay: Mitochondrial membrane potential (safranine test); format: biochemical, Wistar rats; settings: suggested from membrane potential and calcium retention data (Table 15)
Procedure: The same experimental conditions were used for the assessment of alterations of the mitochondrial membrane potential, except that safranine was included in incubation medium at a final concentration of 10 mkM and succinate was added before the compounds of the invention. This concentration of safranine was determined before hand as the optimal compromise between signal/baseline ratio and interference of safranine itself with swelling induced by Ca/Pi (safranine tended to enhance Ca/Pi-induced swelling at concentrations above 20 mkM). Changes in the status of the mPT pore were assessed spectrophotometrically at 554 and 524 nm in a cuvette in a Beckman DU 640 spectrophotometer. A554-524 represents the characteristics of mitochondrial potential and A554-characteristics of mitochondrial swelling.

mice = assay: recognition test of new location of a known object (spatial memory); format: in vivo; settings: for overall effect on memory (in words): doses 0.05-1 mg/kg

Row | SMILES | glutamate-induced 45Ca2+ uptake into synaptosomes of rat cortex, % Ca of control (control-100%) ([1]; C 100 μM) [%] | % Ca of control (control-100%), glutamate-induced 45Ca2+ uptake into synaptosomes ([1]; compound 0.1 μM) [%] | % Ca of control (control-100%), glutamate-induced 45Ca2+ uptake into synaptosomes ([1]; compound 0.5 μM) [%] | % Ca of control (control-100%), glutamate-induced 45Ca2+ uptake into synaptosomes ([1]; compound 1 μM) [%] | % Ca of control (control-100%), glutamate-induced 45Ca2+ uptake into synaptosomes ([1]; compound 5 μM) [%] | % Ca of control (control-100%), glutamate-induced 45Ca2+ uptake into synaptosomes ([1]; compound 10 μM) [%] | % Ca of control (control-100%), glutamate-induced 45Ca2+ uptake into synaptosomes ([1]; compound 50 μM) [%] | % Ca of control (control-100%), glutamate-induced 45Ca2+ uptake into synaptosomes ([1]; compound 100 μM) [%] | impairment of mitochondrial respiratory functions accompanying inhibition of MPT (rat brain mitochondria) | Influence on memory in the test recognition new localization of known object (mice; Dose of Compound 0.05 mg/kg) | Influence on memory in the test recognition new localization of known object (mice; Dose of Compound 0.1 mg/kg) | Influence on memory in the test recognition new localization of known object (mice; Dose of Compound 0.5 mg/kg) | Influence on memory in the test recognition new localization of known object (mice; Dose of Compound 1.0 mg/kg) | effect of the dose on exploration time / memory (in words) (mice; mice, dose 0.05 mg/kg) | time exploring the object in a new location, % of the total time (mice; mice, dose 0.1 mg/kg) [%] | time exploring the object in the known position, % of the total time (mice; mice, dose 0.1 mg/kg) [%] | time exploring the object in a new location, % of the total time (mice; mice, dose 1 mg/kg) [%] | time exploring the object in the known position, % of the total time (mice; mice, dose 1 mg/kg) [%] | overall effect on memory (in words) (mice; mice) | glutamate-induced 45Ca2+ uptake into synaptosomes of rat cortex, % Ca of control (control-100%) ([1]; C 0.1 μM) [%] | further results
1 | Cc1ccc2c(c1)c1c(n2CCc2nc(-c3ccccc3)cs2)CCN(C)C1 [Compound C1-5] | 130 | 96.3 ± 5.6 | 77.5 ± 0.8 | 94 ± 3.4 | 96 ± 1.5 | 117.2 ± 1.3 | 115.4 ± 4.8 | 30.1 ± 7.4 | impairment of mitochondrial respiratory functions | − | + | − | + | no effect | 57.9±7.5 | 42.1±7.5 | 57.4±8.4 | 42.6±8.4 | stimulating effect on memory |  | inhibition of glutamate-induced 45Ca2+ uptake into synaptosomes ([1]; 0.5 μM): about 22.5%; activity on memory compared with dimebon (in words) (mice; comparison of effective doses): at a level dimebon; effect of the dose on exploration time / memory (in words) (mice; mice, dose 0.5 mg/kg): disappearance of the stimulating effect on memory
2 | CN1CCc2c(c3ccccc3n2CCc2noc(-c3ccccc3)n2)C1 [Compound C4-1] | 115.9 ± 8.8 |  |  |  |  |  |  |  | impairment of mitochondrial respiratory functions | − | + | − | − |  |  |  |  |  |  | 79.4 ± 6.1 | inhibition of glutamate-induced 45Ca2+ uptake into synaptosomes ([1]; 0.1-0.5 μM): about 20%; glutamate-induced 45Ca2+ uptake into synaptosomes of rat cortex, % Ca of control (control-100%) ([1]; C 0.5 μM): 79.2 ± 10%; glutamate-induced 45Ca2+ uptake into synaptosomes of rat cortex, % Ca of control (control-100%) ([1]; C 1.0 μM): 106.1 ± 7.9%; glutamate-induced 45Ca2+ uptake into synaptosomes of rat cortex, % Ca of control (control-100%) ([1]; C 5.0 μM): 128% and 128 ± 4.5%; glutamate-induced 45Ca2+ uptake into synaptosomes of rat cortex, % Ca of control (control-100%) ([1]; C 10 μM): 107.6 ± 3.5%; glutamate-induced 45Ca2+ uptake into synaptosomes of rat cortex, % Ca of control (control-100%) ([1]; C 25 μM): 114.3 ± 0.5%; glutamate-induced 45Ca2+ uptake into synaptosomes of rat cortex, % Ca of control (control-100%) ([1]; C 50 μM): 110.1 ± 5.1%
3 | Cc1ccc2c(c1)c1c(n2CCc2noc(-c3ccccc3)n2)CCN(C)C1 [Compound C4-4] | 125.3 ± 11.2 |  |  |  |  |  |  |  | impairment of mitochondrial respiratory functions | − | + | + | + | no effect | 58.5±9.6 | 41.5±9.6 |  |  | activating effect on memory | 111.2 ± 9.2 | concentration at which glutamate-induced 45Ca2+ uptake into synaptosomes was increased [1]: 50 to 100 µM; concentration at which glutamate-induced 45Ca2+ uptake into synaptosomes was inhibited [1]: 0.5 µM; inhibition of glutamate-induced 45Ca2+ uptake into synaptosomes ([1]; 1 μM (maximal inhibition)): 20.5%; glutamate-induced 45Ca2+ uptake into synaptosomes of rat cortex, % Ca of control (control-100%) ([1]; C 0.5 μM): 81.8 ± 14%; glutamate-induced 45Ca2+ uptake into synaptosomes of rat cortex, % Ca of control (control-100%) ([1]; C 1.0 μM): 79.5 ± 11.1%; glutamate-induced 45Ca2+ uptake into synaptosomes of rat cortex, % Ca of control (control-100%) ([1]; C 5.0 μM): 97.9 ± 4.3%; glutamate-induced 45Ca2+ uptake into synaptosomes of rat cortex, % Ca of control (control-100%) ([1]; C 10 μM): 99.9 ± 11.7%; glutamate-induced 45Ca2+ uptake into synaptosomes of rat cortex, % Ca of control (control-100%) ([1]; C 25 μM): 93.6 ± 15.7%; glutamate-induced 45Ca2+ uptake into synaptosomes of rat cortex, % Ca of control (control-100%) ([1]; C 50 μM): 137.5 ± 5.4%; time after training for which the activating effect on memory is preserved (mice; mice): about 48 hours; time exploring the object in a new location, % of the total time (mice; mice, dose 0.5 mg/kg): 59.1±4.2%; time exploring the object in the known position, % of the total time (mice; mice, dose 0.5 mg/kg): 40.9±4.2%
4 | CN1CCc2c(c3cc(Cl)ccc3n2CCc2noc(-c3ccccc3)n2)C1 [Compound C4-6] | 152.2 | 103.6 ± 11.4 | 96.9 ± 11.9 | 105.5 ± 5.2 | 86.5 ± 6.1 | 88.6 ± 2.8 | 122.1 ± 8.5 | 152.0 ± 6.7 | impairment of mitochondrial respiratory functions | − | − | + | + | not effective |  |  | 56.3±7.7 | 43.7±7.7 | stimulated memory |  | concentration at which glutamate-induced 45Ca2+ uptake into synaptosomes was increased [1]: 50 to 100 µM; concentration at which glutamate-induced 45Ca2+ uptake into synaptosomes was inhibited [1]: 5 to 10 µM; activity on memory: times weaker than dimebon (mice; comparison of effective doses): approximately 5 times; effect of the dose on exploration time / memory (in words) (mice; mice, dose 0.1 mg/kg): not effective; time exploring the object in a new location, % of the total time (mice; mice, dose 0.5 mg/kg): 61.0±4.8%; time exploring the object in the known position, % of the total time (mice; mice, dose 0.5 mg/kg): 39.0±4.8%
